For `CCOc1cc2c(cc1S(=O)(=O)c1ccccc1)[C@@H](N1CCCC1=O)[C@H](O)C(C)(C)O2` (relative stereo), the melting point fell in the range of 197 to 198 °C.

For `CC(C)(C)OC(=O)OCn1c(C(=O)Nc2nc(-c3ccccc3)c(CCO)s2)cc2ccccc21`, the melting point lay in the range of 180 to 181 °C.

For `O=C1N(Cc2ccc(C(F)(F)F)o2)c2ccccc2C12COc1cc3c(cc12)OCCCO3` (stereo not drawn), the melting point lay in the range of 162 to 164 °C.

Molecule `CC(=O)Nc1ccc(C(=O)CCC(=O)O)cc1Cl` showed a melting point of 168 to 170 °C.

In turn, `CC1(C)C=Cc2cc(S(=O)(=O)c3ccccc3)ccc2O1` returned a melting point of 95 to 96 °C.

With `CCCCCS(=O)(=O)NC(=O)/C=C/c1ccc(C)n1Cc1ccc(Cl)cc1Cl`, the melting point was 189 to 190 °C.

The molecule `O=S(=O)(COc1ncc(Cl)cn1)c1ncc(Cl)cn1` displayed a melting point of 135 °C.

The molecule `CCc1ccccc1-c1nc2c3ccccc3ccn2c1N=Cc1ccc(C)cc1` yielded a melting point of 158 to 160 °C.

In the case of `Cn1c(=O)oc2cc3c(cc21)OCC31C(=O)N(Cc2ccc(C(F)(F)F)o2)c2ccccc21` (stereo not drawn), the melting point fell in the range of 198 to 199 °C.

In the case of `O=S(=O)(Cc1noc(-c2ccccc2)n1)c1ccc(CCNCC(O)c2ccc(OC(F)(F)F)cc2)cc1` (stereo not drawn), the melting point fell in the range of 125 to 127 °C.

As for `CC(C)(C)OC(=O)NCCCCCn1c(=O)c2cccc3ncc(c1=O)n32`, the melting point lay within 82 to 83 °C.

`CC1(C)CC(=O)c2c(Nc3ccccn3)cn(-c3ccccn3)c2C1` had a melting point of 180 to 183 °C.

Take `CCc1cc(-c2ccc(-c3ccn(C)n3)cc2)ccc1OC`: the melting point was in the range of 167 to 170 °C.

For the molecule `COc1ccc(C(=O)c2ccc(OCc3nc(-c4ccccc4)sc3C)cc2)c(OC(C)(C)C(=O)O)c1`, the melting point lay within 145 to 147 °C.

In turn, `CNc1cc(C=O)cc(S(N)(=O)=O)c1Oc1ccccc1` displayed a melting point of 166 to 167 °C.

`CCCc1nc2c(N)nc3cc(OCCNC(=O)OC(C)(C)C)ccc3c2s1` returned a melting point of 136 to 139 °C.

`CCCc1c(OC(C)=O)cc2oc3cc(Cl)cn3c(=O)c2c1OC(C)=O`: the melting point is 178 to 179 °C.

As to `COc1cc2c(=O)c(S(C)=O)cn(C)c2cc1Cl` (stereo not drawn), the melting point fell in the range of 263 to 265 °C.

Turning to `O=C(OCc1ccccc1)On1nnc2ccccc21`, the melting point was 130 to 131 °C.

Regarding `CC(=O)NCCc1nnc(S)s1`, the melting point was 157 to 160 °C.

For the molecule `O=C(N[C@H](Cc1ccc(C(F)(F)F)cc1)[C@@H](O)c1ccc(F)cc1)c1cccc(Cl)c1Cl` (racemic), the melting point fell in the range of 187 to 188 °C.

`C=C(C)C(=O)OCCCCCCS(=O)(=O)c1ccc(O)c(C)c1` yielded a melting point of 84 to 85 °C.

In the case of `CC(C)(F)Cn1c(CO)nc2c(N)nc3cccnc3c21`, the melting point was 240 to 241 °C.

With `CCCCOP(=O)(CCCCC1(C(=O)NCCC)c2ccccc2-c2ncccc21)OCCCC` (stereo not drawn), the melting point was 93.5 to 96 °C.

Consider `Nc1ncnc2c1ncn2Cc1oc2ccc(F)cc2c(=O)c1-c1ccccc1`, for which the melting point lay in the range of 207 to 209 °C.

In turn, `CNc1nnc(-c2ccc3occ(-c4ccc(S(C)=O)cc4)c3c2)o1` (stereo not drawn) had a melting point of 240 to 241 °C.

`CC(Cc1ccccc1C(=O)O)c1cccs1` (stereo not drawn) yielded a melting point of 66 to 68 °C.

`CCOC(=O)CSCc1nc(NCc2ccc(OC)c(Cl)c2)c2c3c(sc2n1)CCCC3` displayed a melting point of 158 to 160 °C.

`BrCCCCCCCCCCCCCCCCCCCCCCCCBr` showed a melting point of 105 °C.

Take `C=C(C(=O)NCc1ccccc1)c1ccccc1`: the melting point fell in the range of 84 to 86 °C.

For the molecule `CCOC(=O)c1cc2c(C=O)c(OC[C@H]3CO3)ccc2[nH]1`, the melting point was 152 to 154 °C.

Turning to `CCCC(C)(CO)c1cc(Cl)nnc1Cl` (stereo not drawn), the melting point lay within 99 to 100 °C.

In turn, `c1ccc(-c2cc(OCC3CO3)no2)cc1` (stereo not drawn) displayed a melting point of 98 to 99 °C.

Molecule `CCCCOCC(CO)OCn1cnc2c(O)nc(N)nc21` (stereo not drawn) returned a melting point of 208 to 211 °C.

Consider `COc1cc(Oc2ccc(Cl)cc2)ccc1[N+](=O)[O-]`, for which the melting point is 88 to 89 °C.

For the molecule `CN(Cc1ccccc1)c1nc(=O)c2cccnc2s1`, the melting point was in the range of 112 to 113 °C.

In turn, `CCc1cccc(Nc2ncnc3cc(OCc4ccccc4)c(OCCOC)cc23)c1` returned a melting point of 156 to 157 °C.

As to `Cn1cc(C(=O)NCc2ccc(Cl)cc2)c(=O)c2scc(COCC[Si](C)(C)C)c21`, the melting point is 135 to 136 °C.

Regarding `CCO[PH](=O)OP(=O)(CNC(C)(c1ccccc1)c1cc(C(C)(C)C)c(O)c(C(C)(C)C)c1)OCC` (stereo not drawn), the melting point is 95 to 110 °C.

`Sc1nnc2c3ccccc3cnn12` gave a melting point of 270 to 280 °C.

As for `Cc1ccccc1NS(=O)(=O)c1cc([N+](=O)[O-])ccc1C`, the melting point was in the range of 171 to 173 °C.

In turn, `Cn1c(C(F)(F)F)cc(=O)n(-c2cc(OCC(=O)c3ccccc3)c(Cl)cc2F)c1=O` had a melting point of 152 to 153 °C.

In turn, `Cc1nc2c(cc1C(=O)NC(=N)N)CCCCC2CS(=O)(=O)O` (stereo not drawn) displayed a melting point of 245 to 247 °C.

With `CC(=O)Nc1ccc(OCC(O)CN2CCC(N3CCCNC3=O)CC2)cc1` (stereo not drawn), the melting point lay within 218 to 221 °C.

Molecule `CS(=O)(=O)c1ccc(-c2cccn2-c2ccccc2)cc1` returned a melting point of 140 to 142 °C.

Turning to `CC(C)c1cnc(NC(=O)Nc2cccc(N)c2)s1`, the melting point is 113 to 115 °C.

Consider `CC(c1ccccc1)N1Cc2cncn2C(c2ccc(C#N)cc2)C1=O` (stereo not drawn), for which the melting point lay within 157 to 158 °C.

In turn, `COc1cc2c(cc1OC)C(N1CCN(c3ccc4c(c3)CCC(=O)N4)CC1)=NCC2` displayed a melting point of 70 to 75 °C.

For the molecule `CCOC(=O)c1ccc(Cn2cnc3cnccc32)cc1`, the melting point lay within 156 to 157 °C.

In turn, `CN1C(=O)C(CC(O)C#N)c2ccccc21` (stereo not drawn) returned a melting point of 136 to 138 °C.

`CCc1n[nH]c(CC)c1Oc1cc(Cl)cc(Cl)c1` came in with a melting point of 114 to 115 °C.

For the molecule `O=C(NOC(=O)c1ccccc1)OCC1c2ccccc2-c2ccccc21`, the melting point came to 150 °C.

Turning to `O=S(=O)(Nc1cccc2cc(C3=NCC(CCO)S3)[nH]c12)c1cccs1` (stereo not drawn), the melting point lay in the range of 156 to 158 °C.

For `COc1ccc(COc2cc(Sc3c(Cl)cc(C=O)cc3Cl)ccc2OC)cn1`, the melting point was in the range of 102 to 104 °C.

Molecule `Cc1ccc(S(=O)(=O)NC(=O)OCCc2ccc(-n3c(C(C)(C)C)nc4c(C)nc(C)cc43)cc2)cc1` returned a melting point of 226 °C.

`CC(C)c1ccc(C2C(=O)Oc3ccc(Br)cc32)cc1` (stereo not drawn) displayed a melting point of 157 to 158 °C.

As to `CC(C)N(O)C(=O)C=Cc1ccc2ccccc2c1`, the melting point fell in the range of 184 to 185 °C.

`Cc1c(O)ccc2c(C(F)(F)F)cc(=O)oc12`: the melting point lay in the range of 114 to 116 °C.

For `CCC(=CC(CNC(=O)c1ccc(NS(C)(=O)=O)nc1)=NO)C(C)[N+](=O)[O-]` (stereo not drawn), the melting point was 131 to 136 °C.

As for `O=C(O)C1C=CCn2c(=O)n(CO)c(=O)n21` (stereo not drawn), the melting point was 175 to 178 °C.

Molecule `CNS(=O)(=O)CCc1ccc(N)cc1` displayed a melting point of 101 to 105 °C.

As for `CCCCN1C(=O)CN2C(=O)CN(c3ccc(C(C)C)cc3Br)c3nc(C)nc1c32`, the melting point was in the range of 207 to 208 °C.

`COc1ccc(OC)c(S(=O)(=O)n2c(COC(C)(C)C(=O)O)cc3nc(Cl)ccc32)c1`: the melting point is 200 °C.

`N#Cc1c(N)cccc1Oc1ccccc1` yielded a melting point of 66 to 67 °C.

`O=C(Nc1ccc(-c2ccc(C(=O)N3CCN4CCC3CC4)o2)cc1)Nc1cccc(C(F)(F)F)c1` had a melting point of 171 °C.

With `FC(F)(F)c1cccc(-c2ccnc(Nc3ccc4c(c3)OCCO4)c2)c1`, the melting point is 139 to 140 °C.

Take `CN(C)CCOC(=O)c1cccc(Nc2cc(C(C)(C)C)c(O)c(C(C)(C)C)c2)c1`: the melting point fell in the range of 119 to 120 °C.

Regarding `Cc1c(CC(=O)OCCO[N+](=O)[O-])cc(-c2ccc(S(C)(=O)=O)cc2)n1-c1ccccc1`, the melting point lay in the range of 124 to 126 °C.

Regarding `CC(C)(C)c1cc(C=C2Sc3ccccc3N(CP(=O)(O)O)C2=O)cc(C(C)(C)C)c1O`, the melting point fell in the range of 232 to 233 °C.

Turning to `Cc1ccc(-c2nc(NCCN3CCOCC3)cc(Sc3ccc(Cl)cc3)n2)cc1`, the melting point is 141 to 142 °C.

Consider `CC(=O)Nc1c(N(C)C)cnn(C)c1=O`, for which the melting point lay in the range of 123 to 124 °C.

Consider `CCC=C(CCC)C(=O)O`, for which the melting point was 38 °C.

Turning to `O=C1CCC(c2ccc(C3=NNC(=O)CC3)cc2)=NN1`, the melting point is over 250 °C.

As for `CCNc1nc2ccc(CCc3cn4c(n3)CC(C)CC4)cc2o1` (stereo not drawn), the melting point lay in the range of 159 to 161 °C.

Turning to `C=CCOc1ccc2c(=O)c(C)c(-c3ccccc3)oc2c1C(=O)C=Cc1cccc(OC)c1`, the melting point lay in the range of 90 to 92 °C.

Consider `CC(C)(NC(=O)OCc1ccccc1)C(=O)NC(c1ccccc1)c1ccccc1`, for which the melting point is 157 to 159 °C.

Consider `Cc1sc(-c2cn[nH]c2)nc1O`, for which the melting point was in the range of 124 to 125 °C.

On to `O=C(C[C@@H](O)C(F)(F)F)N[C@H]1CC[C@H](CCN2CCN(c3nccc4c3CCO4)CC2)CC1`, for which the melting point turned out to be 207 °C.

`CCc1ccc2c(C3=C(c4cn(C)c5ccccc45)C(=O)NC3=O)cn(C)c2c1` yielded a melting point of 247 to 248 °C.

Turning to `N#Cc1cccc(OS(N)(=O)=O)c1`, the melting point lay in the range of 101 to 104 °C.

`CN(CCO)Cc1ccc2c(c1)c(=O)c(C(=O)NCc1ccc(Cl)cc1)cn2C` came in with a melting point of 130 to 131 °C.

On to `CN(C)C(=O)NCc1cccc2c1CN(C1CCC(=O)NC1=O)C2=O` (stereo not drawn), for which the melting point fell in the range of 169 to 171 °C.

The molecule `NC(=O)c1c[nH]c2cccc(OCc3ccccc3)c12` had a melting point of 176 °C.

`CCOC(=O)CC(=O)C=Cc1ccc(OC)cc1` yielded a melting point of 69 °C.

Molecule `O=C(Nc1cccc(S(=O)(=O)NCC2CC2)c1)c1cnn2c(C(F)(F)F)cc(-c3ccc(C(F)(F)F)cc3)nc12` returned a melting point of 234 °C.

In the case of `CN1CCN(CCCNc2ncc3cc(-c4c(Cl)cccc4Cl)c(NC(=O)Nc4cccc5ccccc45)nc3n2)CC1`, the melting point is 186 to 189 °C.

In the case of `CC(=O)Oc1c(Cc2ccccc2)cc(C(C)=O)c2ccccc12`, the melting point lay within 118 to 120 °C.

In turn, `Clc1ccc(OC(c2cccnc2)n2cncn2)c(Cl)c1` (stereo not drawn) had a melting point of 75.5 to 78 °C.

The melting point is the temperature of the solid-liquid transition.

The record behind these values is a melting point compilation (Tetko et al.; mined from patent text by program, amines drawn as free bases though some values may be those of a salt).
